# Assay results: patent US20240383870A1, “HETEROCYCLIC ALDEHYDE TRAPPING COMPOUNDS AND USES THEREOF” (Aldeyra Therapeutics, Inc., priority 2021, published 2024)
# Tests used:
# Format in all cases: in vivo
# eotaxin = assay: Acute LPS-induced sepsis in C57BL/6 mice: eotaxin cytokine detection assay; details: 200 mpk PO; LPS-challenged mice, plasma at 6.5 h; unpaired t-test vs vehicle
# IL-6 = assay: Acute LPS-induced sepsis in C57BL/6 mice: IL-6 cytokine detection assay; details: 200 mpk PO; LPS-challenged mice, plasma at 6.5 h; unpaired t-test vs vehicle
# Excerpt: FIG. 11 is a graph showing the results of an IL-6 cytokine detection assay in samples collected from mouse subjects after administration of compounds of the present disclosure.
# (§1) The primary objective of this study was to collect plasma samples of lipopolysaccharide (LPS) challenged C57BL/6 mice after dose of test compounds to provide a cytokine profile as impacted by prophylactic treatments. This study models acute sepsis, which is a systemic inflammatory syndrome initiated by Gram-negative and Gram-positive bacteria and fungi which infect the lungs, abdomen, bloodstream, and renal or genitourinary tracts. Sepsis patients ultimately die of multiorgan failure which is caused by extensive tissue hypo-oxygenation due to ongoing microvascular leakage, disseminated intravascular coagulation, compromised energy production, and metabolic alterations. Sepsis is characterized by an early systemic inflammatory response phase featuring symptoms, such as tachycardia, fever, hyperventilation, and activation of the complement and coagulation cascades. However, it is now appreciated that a compensatory anti-inflammatory response phase follows, characterized by neuroendocrine-mediated immunosuppression. Since these processes are the result of interaction between cells of inflammation and organs, investigation of the treatment of this syndrome requires the use of intact animal models. The use of ten mice per group allows useful statistical modelling of the results.
# (§2) For the data shown in Table 2A, 103 mice (female, 18-22 gram, C57BL/6) were purchased from ENVIGO. The mice were housed in 20 cages of 5 mice per cage with 1 cage of 3 mice as extra. The cages had filter tops and autoclaved bedding, and the animals were placed in quarantine with daily inspection. The treatment groups are detailed in Table 2A below. 10 mice were included in each group. The mice were dosed by oral gavage (PO) at 10 ml/kg as per the table below. MC=methyl cellulose.
# as §2, with “2B, 185” for “2A, 103”, “37” for “20”, “cage.” for “cage with 1 cage of 3 mice as extra.”, “2B” for “2A”, “(P0)” for “(PO)”
# (§3) At T=0 h, the mice were dosed with one of the test compounds as described in the above table.
# (§4) At T=0.5 h, the mice were injected IP with 1.5 mg/kg […] (Sigma).
# (§5) At T=6.5 h, all mice were anesthetized and exsanguinated into pre-chilled EDTA-treated tubes. […]
# (§6) A 32-plex cytokine panel was obtained from Eve Technologies. Each cytokine was assessed based against a 7 point curve range in duplicate. […]
# IL-7 = assay: Acute LPS-induced sepsis in C57BL/6 mice: IL-7 cytokine detection assay; details: LPS-challenged mice, plasma at 6.5 h, unpaired t-test vs vehicle
# IL-13 = assay: Acute LPS-induced sepsis in C57BL/6 mice: IL-13 cytokine detection assay; details: LPS-challenged mice, plasma at 6.5 h, unpaired t-test vs vehicle
# Excerpt: FIG. 17 is a graph showing the results of an IL-13 cytokine detection assay in samples collected from mouse subjects after administration of compounds of the present disclosure.
# as §1, §2
# as §2, with “2B, 185” for “2A, 103”, “37” for “20”, “cage.” for “cage with 1 cage of 3 mice as extra.”, “2B” for “2A”, “(P0)” for “(PO)”
# as §3, §4
# (§7) At T=6.5 h, all mice were anesthetized and exsanguinated into pre-chilled EDTA-treated tubes. The blood was processed to plasma which was stored in labeled 0.5 polypropylene snap-cap tubes (0.5 mL Eppendorf Safe-Lock Tubes (Fisher Scientific) at −80° C.
# (§8) Preparation of vehicle: 1.0 gram of methyl cellulose (Sigma) was dissolved in 200 mL of water (USP purified) to make a solution of 0.5% methyl cellulose in water. Preparation of LPS solution: 6 mg of LPS (from Escherichia Coli 055:B5, Cat #L2880, Sigma Lot #057m4013) was dissolved in 20 ml of saline to give a LPS solution of 0.3 mg/ml. All mice were injected with 5 ml/kg (1.5 mg/kg) at the scheduled time by intraperitoneal injection.
# A 32-plex cytokine panel was obtained from Eve Technologies. Each cytokine was assessed based against a 7 point curve range in duplicate. The average of the two replicate analyses was used for statistics. […]
# IL-15 = assay: Acute LPS-induced sepsis in C57BL/6 mice: IL-15 cytokine detection assay; details: LPS-challenged mice, plasma at 6.5 h, unpaired t-test vs vehicle
# IL-17 = assay: Acute LPS-induced sepsis in C57BL/6 mice: IL-17 cytokine detection assay; details: LPS-challenged mice, plasma at 6.5 h, unpaired t-test vs vehicle
# Excerpt: FIG. 19 is a graph showing the results of an IL-17 cytokine detection assay in samples collected from mouse subjects after administration of compounds of the present disclosure.
# as §1
# as §2, with “The mice were dosed by oral gavage (PO) at 10 ml/kg as per the table below.” left out
# as §2, with “2B, 185” for “2A, 103”, “37” for “20”, “cage.” for “cage with 1 cage of 3 mice as extra.”, “2B” for “2A”, “(P0)” for “(PO)”
# as §3, §4, §5, §6
# KC = assay: Acute LPS-induced sepsis in C57BL/6 mice: KC cytokine detection assay; details: 200 mpk PO; LPS-challenged mice, plasma at 6.5 h; unpaired t-test vs vehicle
# Excerpt: FIG. 20 is a graph showing the results of a KC cytokine detection assay in samples collected from mouse subjects after administration of compounds of the present disclosure.
# as §1, §2
# as §2, with “2B, 185” for “2A, 103”, “37” for “20”, “cage.” for “cage with 1 cage of 3 mice as extra.”, “2B” for “2A”, “(P0)” for “(PO)”
# as §3, §4, §7, §8
# (§9) A 32-plex cytokine panel was obtained from Eve Technologies. Each cytokine was assessed based against a 7 point curve range in duplicate. The average of the two replicate analyses was used for statistics. Unpaired t-tests were performed using Excel™ contrasting vehicle against each treatment group. One star indicates P<0.05. Two stars indicates P<0.01. Three stars indicates P<0.001. Four stars indicates P<0.0001. Most, but not all, statistically significant results are indicated with star(s).
# [1] = system: leukemia inhibitory factor (LIF); assay: Acute LPS-induced sepsis in C57BL/6 mice: leukemia inhibitory factor (LIF) cytokine detection assay; details: LPS-challenged mice, plasma at 6.5 h, unpaired t-test vs vehicle
# Excerpt: FIG. 21 is a graph showing the results of a leukemia inhibitory factor (LIF) cytokine detection assay in samples collected from mouse subjects after administration of compounds of the present disclosure. LIF is an interleukin 6 class cytokine that affects cell growth by inhibiting differentiation.
# as §1, §2
# as §2, with “2B, 185” for “2A, 103”, “37” for “20”, “cage.” for “cage with 1 cage of 3 mice as extra.”, “2B” for “2A”, “(P0)” for “(PO)”
# as §3, §4, §7, §8, §6
# MCP-1(CCL2) = assay: Acute LPS-induced sepsis in C57BL/6 mice: MCP-1(CCL2) cytokine detection assay; details: LPS-challenged mice, plasma at 6.5 h, unpaired t-test vs vehicle
# MIP2(CXCL2) = assay: Acute LPS-induced sepsis in C57BL/6 mice: MIP2(CXCL2) cytokine detection assay; details: LPS-challenged mice, plasma at 6.5 h, unpaired t-test vs vehicle
# Excerpt: FIG. 27 is a graph showing the results of a MIP2(CXCL2) cytokine detection assay in samples collected from mouse subjects after administration of compounds of the present disclosure.
# as §1
# as §2, with “The mice were dosed by oral gavage (PO) at 10 ml/kg as per the table below.” left out
# as §2, with “2B, 185” for “2A, 103”, “37” for “20”, “cage.” for “cage with 1 cage of 3 mice as extra.”, “2B” for “2A”, “(P0)” for “(PO)”
# as §3, §4, §5, §6
# TNFα = assay: Acute LPS-induced sepsis in C57BL/6 mice: TNFα cytokine detection assay; details: 200 mpk PO; LPS-challenged mice, plasma at 6.5 h; unpaired t-test vs vehicle
# Excerpt: FIG. 29 is a graph showing the results of a TNFα cytokine detection assay in samples collected from mouse subjects after administration of compounds of the present disclosure.
# as §1
# as §2, with “cellulose. […]” for “cellulose.”
# as §6
# IL-3 = assay: Acute LPS-induced sepsis in C57BL/6 mice: IL-3 cytokine detection assay; details: 200 mpk PO; LPS-challenged mice, plasma at 6.5 h; unpaired t-test vs vehicle
# IL-10 = assay: Acute LPS-induced sepsis in C57BL/6 mice: IL-10 cytokine detection assay; details: LPS-challenged mice, plasma at 6.5 h, unpaired t-test vs vehicle
# M-CSF (CSF1) = assay: Acute LPS-induced sepsis in C57BL/6 mice: M-CSF (CSF1) cytokine detection assay; details: LPS-challenged mice, plasma at 6.5 h, unpaired t-test vs vehicle
# Excerpt: FIG. 24 is a graph showing the results of an M-CSF (CSF1) cytokine detection assay in samples collected from mouse subjects after administration of compounds of the present disclosure. M-CSF causes hematopoietic stem cells to differentiate into macrophages.
# as §1, §2
# as §2, with “2B, 185” for “2A, 103”, “37” for “20”, “cage.” for “cage with 1 cage of 3 mice as extra.”, “2B” for “2A”, “(P0)” for “(PO)”
# as §3, §4, §7, §8, §9
# MIP-1a(CCL3) = assay: Acute LPS-induced sepsis in C57BL/6 mice: MIP-1a(CCL3) cytokine detection assay; details: 100 mpk IP; LPS-challenged mice, plasma at 6.5 h; unpaired t-test vs vehicle
# IFNγ = assay: Acute LPS-induced sepsis in C57BL/6 mice: IFNγ cytokine detection assay; details: 75 mpk PO; LPS-challenged mice, plasma at 6.5 h; unpaired t-test vs vehicle
# IL-12(p70) = assay: Acute LPS-induced sepsis in C57BL/6 mice: IL-12(p70) cytokine detection assay; details: 75 mpk PO; LPS-challenged mice, plasma at 6.5 h; unpaired t-test vs vehicle
# Excerpt: FIG. 16 is a graph showing the results of an IL-12(p70) cytokine detection assay in samples collected from mouse subjects after administration of compounds of the present disclosure.
# as §1
# as §2, with “The mice were dosed by oral gavage (PO) at 10 ml/kg as per the table below.” left out
# as §2, with “2B, 185” for “2A, 103”, “37” for “20”, “cage.” for “cage with 1 cage of 3 mice as extra.”, “2B” for “2A”, “(P0)” for “(PO)”
# as §3, §4, §7, §8
# A 32-plex cytokine panel was obtained from Eve Technologies. Each cytokine was assessed based against a 7 point curve range in duplicate. The average of the two replicate analyses was used for statistics. Unpaired t-tests were performed using Excel™ contrasting vehicle against each treatment group. One star indicates P<0.05. […]
structure (smiles),measurement,setting,value
"CC(O)(c1sc2cccc(Br)c2c1N)C(F)(F)F (centres unmarked) [Compound I-2, 2-(3-amino-4-bromobenzo[b]thiophen-2-yl)-1,1,1-trifluoropropan-2-ol]",Eotaxin: significant cytokine change vs. vehicle,eotaxin,** (Two stars indicates P<0.01)
same,IL-6: significant cytokine change vs. vehicle,IL-6,**** (Four stars indicates P<0.0001)
same,IL-7: significant cytokine change vs. vehicle,IL-7; 200 mpk PO,** (Two stars indicates P<0.01)
same,IL-13: significant cytokine change vs. vehicle,IL-13; 200 mpk PO,**** (Four stars indicates P<0.0001)
same,IL-15: significant cytokine change vs. vehicle,IL-15; 200 mpk PO,** (Two stars indicates P<0.01)
same,IL-17: significant cytokine change vs. vehicle,IL-17; 200 mpk PO,*** (Three stars indicates P<0.001)
same,KC: significant cytokine change vs. vehicle,KC,*** (Three stars indicates P<0.001)
same,LIF: significant cytokine change vs. vehicle,[1]; 200 mpk PO,** (Two stars indicates P<0.01)
same,MCP-1: significant cytokine change vs. vehicle,MCP-1(CCL2); 200 mpk PO,*** (Three stars indicates P<0.001)
same,MIP-2: significant cytokine change vs. vehicle,MIP2(CXCL2); 200 mpk PO,*** (Three stars indicates P<0.001)
same,TNFa: significant cytokine change vs. vehicle,TNFα,**** (Four stars indicates P<0.0001)
"CC(C)(O)c1cc(F)c(F)cc1N [Compound I-27, 2-(2-Amino-4,5-difluorophenyl) propan-2-ol]",KC: significant cytokine change vs. vehicle,KC,* (One star indicates P<0.05)
"CC(O)(c1sc2ccc(C(F)(F)F)cc2c1N)C(F)(F)F (centres unmarked) [Compound I-16, 2-(3-Amino-5-(trifluoromethyl)benzo[b]thiophen-2-yl)-1,1,1-trifluoropropan-2-ol]",IL-3: significant cytokine change vs. vehicle,IL-3,* (One star indicates P<0.05)
same,IL-10: significant cytokine change vs. vehicle,IL-10; 200 mpk PO,** (Two stars indicates P<0.01)
same,MCP-1: significant cytokine change vs. vehicle,MCP-1(CCL2); 200 mpk PO,* (One star indicates P<0.05)
same,M-CSF: significant cytokine change vs. vehicle,M-CSF (CSF1); 200 mpk PO,**** (Four stars indicates P<0.0001)
"CC(O)(c1cccc2[nH]nc(N)c12)C(F)(F)F (centres unmarked) [Compound I-9, 2-(3-amino-1H-indazol-4-yl)-1,1,1-trifluoropropan-2-ol]",IL-7: significant cytokine change vs. vehicle,IL-7; 100 mpk IP,*** (Three stars indicates P<0.001)
same,IL-10: significant cytokine change vs. vehicle,IL-10; 100 mpk IP,**** (Four stars indicates P<0.0001)
same,IL-15: significant cytokine change vs. vehicle,IL-15; 100 mpk IP,** (Two stars indicates P<0.01)
same,MCP-1: significant cytokine change vs. vehicle,MCP-1(CCL2); 100 mpk IP,* (One star indicates P<0.05)
same,MIP-1a: significant cytokine change vs. vehicle,MIP-1a(CCL3),** (Two stars indicates P<0.01)
same,MIP-2: significant cytokine change vs. vehicle,MIP2(CXCL2); 100 mpk IP,* (One star indicates P<0.05)
"Cc1cnc(C(C)(C)O)c(N)c1 [Compound I-32, 2-(3-Amino-5-methylpyridin-2-yl) propan-2-ol]",IFNy: significant cytokine change vs. vehicle,IFNγ,**** (Four stars indicates P<0.0001)
same,IL-10: significant cytokine change vs. vehicle,IL-10; 75 mpk PO,* (One star indicates P<0.05)
same,IL-12 (p70): significant cytokine change vs. vehicle,IL-12(p70),* (One star indicates P<0.05)
same,IL-13: significant cytokine change vs. vehicle,IL-13; 75 mpk PO,*** (Three stars indicates P<0.001)
same,IL-17: significant cytokine change vs. vehicle,IL-17; 75 mpk PO,* (One star indicates P<0.05)
same,LIF: significant cytokine change vs. vehicle,[1]; 75 mpk PO,**** (Four stars indicates P<0.0001)
same,M-CSF: significant cytokine change vs. vehicle,M-CSF (CSF1); 75 mpk PO,**** (Four stars indicates P<0.0001)
